In US9861616B2, “Methods for treating respiratory diseases and formulations therefor” (priority 2013, dated 2018):
Where two headings read alike, the source gives them in different places.

Columns and labels:
[1] = system: TNFα release; test: LPS-induced TNFα release in PMA-differentiated U937 cells (ELISA); format: cell-based, human
Protocol: Effects of macrolides on lipopolysaccharide (LPS)-induced TNFα release in PMA-differentiated U937 cells. […] LPS-induced TNFα release was evaluated by ELISA. Values represent means of three experiments±SEM. ^##p<0.01 (vs. non-treatment control), *p<0.05, **p<0.01 (vs. treatment with LPS only).
The human monocytic cell line U937 was obtained from the American Type Culture Collection (ATCC, Rockville, Md.). PBMCs from COPD patients were obtained from Brompton hospital and separated by AccuSPIN (Sigma-Aldrich). Cells were cultured in complete growth medium (RPMI 1640) (Sigma-Aldrich) supplemented with 10% fetal bovine serum (FBS) and 1% L-glutamine at 37° C. in a humidified atmosphere with 5% CO2. U937 cells were differentiated into adherent macrophage-like morphology by exposure to PMA (50 ng/mL) for 48 hrs in complete growth medium. Cell viability was assessed microscopically by trypan blue staining. Cell toxicity was determined by MTT assay as needed. This study was approved by the ethics committee of the Royal Brompton Hospitals, and all subjects gave written informed consent.
TNFα and IL-8 concentrations in the supernatant of cell cultures were determined by sandwich ELISA according to the manufacturer's instructions (R&D Systems Europe, Abingdon, UK).
The results were expressed as the mean±SEM. Comparisons of data in two groups were performed using the Student's t test or the Wilcoxon signed rank test. Multiple comparisons were made by one-way ANOVA with post hoc test (Dunnett's) as appropriate. The difference was considered significant at p<0.05. IC50 values (50% inhibitory concentration) for macrolides for production of cytokines or MMP9 were calculated using Prism 4.0 (GraphPad Software Inc., San Diego, Calif.).

[2] = Plasma and ELF pharmacokinetics in healthy mice; format: in vivo
Protocol: (§1) CEM-101 PK data were obtained from healthy mice administered single CEM-101 doses ranging from 0.625 to 40 mg/kg. Plasma and ELF were collected over 24 h (3 mice/time point) and assayed for CEM-101. Urea in plasma and ELF was used to correct ELF concentrations. Neutropenic mice infected with 10^8 CFU of 1 of 5 S. pneumoniae isolates via inhalation were administered daily CEM-101 doses (0.156 to 160 mg/kg) via oral gavage. Dose-fractionation was performed for 1 isolate; CEM-101 was administered to the other 4 isolates as a Q6h or Q12h regimen. PK and PK-PD were evaluated using S-ADAPT 1.56.
(§2) A 3-compartment model with a parallel first-order and capacity-limited clearance and a capacity-limited first pass effect with fitted lag-times best described the plasma and ELF data (r2=0.98 and 0.83 for observed vs fitted concentrations, respectively). ELF to total- and free-drug (f) plasma (based on protein binding of 91.8% in mice) AUC0-24 ratios were 0.22 and 2.7, respectively. ELF and f plasma AUC0-24:MIC ratios were most predictive of efficacy (r2=0.85 for ELF and f plasma). […] AUC0-24:MIC ratio was the PK-PD index most predictive of efficacy for CEM-101. PK-PD targets based on these relationships will inform dose selection for future clinical studies.

[3] = system: MRSA SA 2230, SA 2232; test: Time-kill macrobroth MICs; format: cell-based, S. aureus
Protocol: (§3) Original MICs of each strain to CEM-101 and other comparators were tested by CLSI microdilution methodology. Trays were obtained from Trek, Inc., Cleveland, Ohio. Time-kill macrobroth MIC dilution by CLSI was performed for all synergy testing.
(§4) Two of the MRSA strains were chosen and tested for synergy, together with the 4 Gram-negative strains mentioned above. Broth macrodilution formed the basis of MICs used in time-kill experiments, as detailed below. The kill kinetics of each drug was tested alone by incubating an initial inoculum of 5×10^5 to 5×10^6 cfu/mL with drug concentrations at the MIC, three dilutions above and three dilutions below the MIC (½, ¼ and ⅛×MIC). Viability counts were performed after 0, 3, 6, 12 and 24 h incubation at 37° C. in a shaking water bath by plating onto trypticase soy-5% sheep blood agar plates.

[4] = Protein binding; format: in vitro ADME; conditions: mice
Text: as §2

[5] = system: P. aeruginosa strains from cystic fibrosis patients; test: Macrobroth dilution MICs, CF strains; format: cell-based; conditions: 2 P. aeruginosa strains from cystic fibrosis patients
Protocol: (§5) Two strains each of mucoid P. aeruginosa (both pyocyanin positive) and […] MRSA (only one strain with gold colonies) isolated from patients at a CF clinic were tested. Additionally, 2 B. cepacia strains were acquired, from Hershey Medical Center. All strains were identified by standard methods. Only one strain per patient was tested. MLVA was done on all strains to examine clonality, and confirmed that examination is not taking place on only one or a few clones. Strains will be stored in skim milk at −70° C. until use.
as §3

[6] = system: B. cepacia strains from cystic fibrosis patients; test: Macrobroth dilution MICs, CF strains; format: cell-based; conditions: 2 B. cepacia strains from cystic fibrosis patients
Protocol: as §5, §3

[7] = Tissue distribution; format: in vivo; conditions: rat
Protocol: CEM-101 is well absorbed and distributed to the tissue. In the rat at 250 mg/kg/d, mean lung and liver concentrations 5 of CEM-101 were 17 and 15-fold higher than in plasma.

[8] = system: S. pneumoniae; test: PK-PD analysis in neutropenic murine-lung infection model; format: in vivo; conditions: neutropenic mice
Protocol: Using a murine-lung infection model, epithelial lining fluid (ELF) and plasma PK-PD measures most closely associated with CEM-101 efficacy against S. pneumoniae and targets based on PK-PD relationships for such indices were identified.
as §1

[9] = Rodent ADME studies using radiolabeled CEM-101; format: in vivo; conditions: IV 20 mg/kg
Protocol: This relationship was confirmed in rodent ADME studies using radiolabeled CEM-101. […] After IV dosing at 20 mg/kg, the data was more variable and lung/plasma ratios of 17.6 for males and 6.2 for females were observed.

[10] = system: P. aeruginosa PSAR 461, PSAR 468; test: Time-kill macrobroth MICs; format: cell-based
Protocol: as §3, §4

[11] = system: B. cepacia BCEP 953, BCEP 954; test: Time-kill macrobroth MICs; format: cell-based
Protocol: as §3, §4

[12] = Tissue distribution; format: in vivo, monkey
[13] = Tissue levels in repeat-dose toxicology studies; format: in vivo, rodents and non human primates; conditions: repeated dosing
[14] = Homo sapiens, U-937, U937 cells, at 333 μM, read-out: IC50, LPS-induced TNFα release: NE at 333 μM
[15] = PMA-differentiated U937 cells, read-out: IC50, LPS-induced TNFα release

## CC[C@H]1OC(=O)[C@H](C)[C@@H](O[C@H]2C[C@@](C)(OC)[C@@H](O)[C@H](C)O2)[C@H](C)[C@@H](O[C@@H]2O[C@H](C)C[C@H](N(C)C)[C@H]2O)[C@](C)(O)C[C@@H](C)CN(C)[C@H](C)[C@@H](O)[C@]1(C)O [AZM, azithromycin]
[1]; 33 to 333 μM (FIG. 3)
  effect on TNFα production: did not inhibit
[1]; [14]
  IC50: > 333 µM

## CC[C@H]1OC(=O)[C@@](C)(F)C(=O)[C@H](C)[C@@H](O[C@@H]2O[C@H](C)C[C@H](N(C)C)[C@H]2O)[C@](C)(OC)C[C@@H](C)C(=O)[C@H](C)[C@H]2N(CCCCn3cc(-c4cccc(N)c4)nn3)C(=O)O[C@]12C [CEM-101, solithromycin]
[2]
  ELF to total-drug plasma AUC0-24 ratio: 0.22
[2]; based on protein binding of 91.8%
  ELF to free-drug (f) plasma AUC0-24 ratio: 2.7
[3]; strain SA 2230
  Time-kill Macrobroth MIC: 0.125 µg/mL
[3]; strain SA 2232
  Time-kill Macrobroth MIC: 0.125 µg/mL
[1]; [15]
  IC50: 41.6 ± 1.9 µM
[1]; at 100 μM
  effect on TNFα production: significantly inhibited
[4]
  protein binding: 91.8%
[5]
  MIC Range: 64 µg/mL
[6]
  MIC Range: 8 to 32 µg/mL
[7]
  heart concentration relative to plasma: 5 fold
[7]; 250 mg/kg/d
  mean liver concentration relative to plasma: 15 fold
  mean lung concentration relative to plasma: 17 fold
[8]
  ELF AUC0-24:MIC ratio associated with 1-log 10 CFU reduction from baseline: 15.1
  ELF AUC0-24:MIC ratio associated with 2-log 10 CFU reduction from baseline: 59.8
  ELF AUC0-24:MIC ratio associated with net bacterial stasis: 1.26
  f plasma AUC0-24:MIC ratio associated with 1-log 10 CFU reduction from baseline: 6.31
  f plasma AUC0-24:MIC ratio associated with 2-log 10 CFU reduction from baseline: 12.8
  f plasma AUC0-24:MIC ratio associated with net bacterial stasis: 1.65
[9]; females
  lung/plasma ratio: 6.2
[9]; males
  lung/plasma ratio: 17.6
[10]; strain PSAR 461
  Time-kill Macrobroth MIC: 64.0 µg/mL
[10]; strain PSAR 468
  Time-kill Macrobroth MIC: 32.0 µg/mL
[11]; strain BCEP 953
  Time-kill Macrobroth MIC: 8.0 µg/mL
[11]; strain BCEP 954
  Time-kill Macrobroth MIC: 32.0 µg/mL
[12]; monkey
  heart concentration relative to plasma: 54 fold
[12]; monkeys, 200 mg/kg/d
  liver concentration relative to plasma: 711 fold
  lung concentration relative to plasma: 503 fold
[13]
  tissues with highest concentrations: highest in liver, spleen, lung, and salivary gland

## CC[C@H]1OC(=O)[C@H](C)[C@@H](O[C@H]2C[C@@](C)(OC)[C@@H](O)[C@H](C)O2)[C@H](C)[C@@H](O[C@@H]2O[C@H](C)C[C@H](N(C)C)[C@H]2O)[C@](C)(OC)C[C@@H](C)C(=O)[C@H](C)[C@@H](O)[C@]1(C)O [CLR, clarithromycin]
[1]; [15]
  IC50: 426 µM
[1]; at a higher concentration (333 μM)
  effect on TNFα production: modest effects

## CC[C@H]1OC(=O)[C@H](C)[C@@H](O[C@H]2C[C@@](C)(OC)[C@@H](O)[C@H](C)O2)[C@H](C)[C@@H](O[C@@H]2O[C@H](C)C[C@H](N(C)C)[C@H]2O)[C@](C)(O)C[C@@H](C)C(=O)[C@H](C)[C@@H](O)[C@]1(C)O [ERY, erythromycin]
[1]; 33 to 333 μM (FIG. 3)
  effect on TNFα production: did not inhibit
[1]; [14]
  IC50: > 333 µM

## CC[C@H]1OC(=O)[C@H](C)C(=O)[C@H](C)[C@@H](O[C@@H]2O[C@H](C)C[C@H](N(C)C)[C@H]2O)[C@](C)(OC)C[C@@H](C)C(=O)[C@H](C)[C@H]2N(CCCCn3cnc(-c4cccnc4)c3)C(=O)O[C@]12C [TEL, telithromycin]
[1]; Homo sapiens, U-937, read-out: IC50, LPS-induced TNFα release: NE at 100 μM, U937 cells, at 100 μM
  IC50: > 100 µM
[1]; at 100 μM
  effect on TNFα production: did not inhibit
